Like-named read-outs stand apart in the source and are kept apart here.
Legend:
mTOR = molecular target: T1, mTOR (Homo sapiens, UniProt P42345); assay: mTOR kinase inhibition assay (radiometric or LanthaScreen TR-FRET); format: biochemical; conditions: Table 1; read-out: mTOR IC50
T1 construct: purchased Invitrogen
Protocol: The compounds described herein can be tested against recombinant mTOR (Invitrogen) in an assay containing 50 mM HEPES, pH 7.5, 1 mM EGTA, 10 mM MgCl2, 2.5 mM, 0.01% Tween, 10 μM ATP (2.5 μCi of μ-32P-ATP), and 3 mg/mL BSA. Rat recombinant PHAS-1/4EBP1 (Calbiochem; 2 mg/mL) is used as a substrate. Reactions are terminated by spotting onto nitrocellulose, which is washed with 1M NaC1/1% phosphoric acid (approximately 6 times, 5-10 minutes each). Sheets are dried and the transferred radioactivity quantitated by phosphorimaging.
For instance, one can use Invitrogen's LanthaScreen™ Kinase assay to test the inhibitors of mTOR disclosed herein. This assay is a time resolved FRET platform that measures the phosphorylation of GFP labeled 4EBP1 by mTOR kinase. The kinase reaction is performed in a white 384 well microtitre plate. The total reaction volume is 20 ul per well and the reaction buffer composition is 50 mM HEPES pH7.5, 0.01% Polysorbate 20, 1 mM EGTA, 10 mM MnCl2, and 2 mM DTT. In the first step, each well receives 2 ul of test compound in 20% dimethylsulphoxide resulting in a 2% DMSO final concentration. […] The plate is sealed and incubated for 1 hour at room temperature. […] The plate is sealed, incubated for 1 hour at room temperature, and then read on a plate reader set up for LanthaScreen™ TR-FRET. Data is analyzed and IC50s are generated using GraphPad Prism 5.

PC3 = PC3 proliferation (Alamar Blue); format: cell-based; conditions: Homo sapiens, PC-3
Protocol: For instance, an in vitro cellular proliferation assay can be performed to measure the metabolic activity of live cells. The assay is performed in a 96 well microtiter plate using Alamar Blue reduction. […] A compound disclosed herein is diluted in Tumor Cell Media and added in a 10 ul volume. […] A volume of 10 uL of Alamar Blue reagent is added to each well and plates are incubated for 3 hours at 37 C and 5% CO2.

PI3K α = PI3K α (Homo sapiens, UniProt P42336); assay: PI 3-Kinase (human) HTRF assay, PI3K α
PI3K α, sequence (P42336 whole entry): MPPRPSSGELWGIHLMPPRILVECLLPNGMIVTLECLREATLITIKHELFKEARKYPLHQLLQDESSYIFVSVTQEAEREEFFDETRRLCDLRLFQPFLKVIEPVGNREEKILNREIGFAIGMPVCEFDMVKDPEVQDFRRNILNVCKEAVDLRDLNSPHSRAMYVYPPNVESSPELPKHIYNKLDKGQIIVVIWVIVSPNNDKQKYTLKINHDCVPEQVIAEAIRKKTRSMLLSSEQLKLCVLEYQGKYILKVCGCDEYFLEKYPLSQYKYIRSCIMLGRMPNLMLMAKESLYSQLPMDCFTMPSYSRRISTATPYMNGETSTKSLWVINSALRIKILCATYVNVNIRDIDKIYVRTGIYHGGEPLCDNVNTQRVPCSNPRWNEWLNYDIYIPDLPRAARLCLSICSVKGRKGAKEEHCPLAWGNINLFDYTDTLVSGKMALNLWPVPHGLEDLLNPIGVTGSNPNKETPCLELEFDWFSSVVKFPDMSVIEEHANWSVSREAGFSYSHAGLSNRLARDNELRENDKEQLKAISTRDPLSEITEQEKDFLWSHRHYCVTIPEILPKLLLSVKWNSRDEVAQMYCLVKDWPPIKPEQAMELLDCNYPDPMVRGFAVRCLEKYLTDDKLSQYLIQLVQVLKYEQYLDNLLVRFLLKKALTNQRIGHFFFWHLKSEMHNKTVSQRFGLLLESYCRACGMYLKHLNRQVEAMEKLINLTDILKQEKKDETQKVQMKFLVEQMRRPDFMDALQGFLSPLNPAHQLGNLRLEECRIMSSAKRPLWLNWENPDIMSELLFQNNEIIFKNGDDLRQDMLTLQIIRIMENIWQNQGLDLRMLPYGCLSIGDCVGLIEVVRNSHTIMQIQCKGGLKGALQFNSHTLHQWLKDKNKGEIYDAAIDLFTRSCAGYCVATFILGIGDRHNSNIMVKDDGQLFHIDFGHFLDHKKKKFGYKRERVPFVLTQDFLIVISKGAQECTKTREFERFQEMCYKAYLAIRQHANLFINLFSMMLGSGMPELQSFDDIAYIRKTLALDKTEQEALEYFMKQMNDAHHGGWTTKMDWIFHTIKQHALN
PI3K α, sequence (P27986 whole entry partner): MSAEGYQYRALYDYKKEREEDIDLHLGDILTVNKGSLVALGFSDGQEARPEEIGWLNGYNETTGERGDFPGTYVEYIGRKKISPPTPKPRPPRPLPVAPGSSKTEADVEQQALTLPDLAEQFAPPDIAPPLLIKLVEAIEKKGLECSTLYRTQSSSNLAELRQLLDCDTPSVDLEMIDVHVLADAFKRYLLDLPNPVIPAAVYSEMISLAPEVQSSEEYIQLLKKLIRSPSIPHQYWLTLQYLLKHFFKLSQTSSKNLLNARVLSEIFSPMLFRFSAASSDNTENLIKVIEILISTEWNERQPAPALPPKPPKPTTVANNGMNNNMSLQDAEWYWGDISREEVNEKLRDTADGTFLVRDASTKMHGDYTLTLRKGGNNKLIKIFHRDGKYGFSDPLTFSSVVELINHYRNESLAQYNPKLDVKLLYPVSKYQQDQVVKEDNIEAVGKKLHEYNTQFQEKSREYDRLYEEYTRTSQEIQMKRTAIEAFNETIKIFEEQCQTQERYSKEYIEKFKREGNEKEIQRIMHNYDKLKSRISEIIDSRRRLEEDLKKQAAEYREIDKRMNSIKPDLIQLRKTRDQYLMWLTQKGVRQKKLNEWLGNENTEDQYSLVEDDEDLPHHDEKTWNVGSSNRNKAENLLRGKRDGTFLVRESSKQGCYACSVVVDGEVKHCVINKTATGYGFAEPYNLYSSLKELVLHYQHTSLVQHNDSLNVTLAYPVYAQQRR

PI3K β = PI3K β (Homo sapiens, UniProt P42338); assay: PI 3-Kinase (human) HTRF assay, PI3K β
PI3K β, sequence (P42338 whole entry): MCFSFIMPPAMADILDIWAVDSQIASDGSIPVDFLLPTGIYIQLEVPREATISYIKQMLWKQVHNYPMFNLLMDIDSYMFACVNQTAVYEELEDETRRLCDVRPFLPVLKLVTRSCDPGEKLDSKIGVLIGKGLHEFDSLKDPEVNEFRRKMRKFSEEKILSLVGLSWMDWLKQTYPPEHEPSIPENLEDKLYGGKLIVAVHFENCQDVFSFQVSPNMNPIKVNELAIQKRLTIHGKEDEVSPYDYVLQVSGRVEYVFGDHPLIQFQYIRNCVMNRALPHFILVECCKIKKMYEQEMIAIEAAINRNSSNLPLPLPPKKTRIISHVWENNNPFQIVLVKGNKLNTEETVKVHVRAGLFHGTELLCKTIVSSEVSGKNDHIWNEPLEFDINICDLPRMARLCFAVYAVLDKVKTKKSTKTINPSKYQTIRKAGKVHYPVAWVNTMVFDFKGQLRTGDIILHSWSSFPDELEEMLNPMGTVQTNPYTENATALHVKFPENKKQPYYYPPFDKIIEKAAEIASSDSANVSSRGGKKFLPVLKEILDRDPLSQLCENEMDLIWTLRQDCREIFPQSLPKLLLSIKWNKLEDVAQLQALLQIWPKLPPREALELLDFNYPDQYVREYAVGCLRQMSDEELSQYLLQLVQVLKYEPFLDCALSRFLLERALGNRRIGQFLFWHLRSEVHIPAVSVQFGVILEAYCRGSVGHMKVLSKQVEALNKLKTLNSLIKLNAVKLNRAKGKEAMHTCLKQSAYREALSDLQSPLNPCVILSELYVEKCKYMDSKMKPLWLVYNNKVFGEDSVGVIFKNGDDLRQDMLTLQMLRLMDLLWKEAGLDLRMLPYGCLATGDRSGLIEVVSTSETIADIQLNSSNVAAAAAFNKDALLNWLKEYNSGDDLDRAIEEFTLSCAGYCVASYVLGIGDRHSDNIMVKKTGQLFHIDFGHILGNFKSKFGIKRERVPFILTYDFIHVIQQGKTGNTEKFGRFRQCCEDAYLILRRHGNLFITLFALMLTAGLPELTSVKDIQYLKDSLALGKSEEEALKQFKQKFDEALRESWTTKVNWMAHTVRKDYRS
PI3K β, sequence (P27986 whole entry partner): as the sequence (P27986 whole entry partner) above

PI3K γ = PI3K γ (Homo sapiens, UniProt P48736); assay: PI 3-Kinase (human) HTRF assay, PI3K γ
PI3K γ, sequence (P48736 whole entry): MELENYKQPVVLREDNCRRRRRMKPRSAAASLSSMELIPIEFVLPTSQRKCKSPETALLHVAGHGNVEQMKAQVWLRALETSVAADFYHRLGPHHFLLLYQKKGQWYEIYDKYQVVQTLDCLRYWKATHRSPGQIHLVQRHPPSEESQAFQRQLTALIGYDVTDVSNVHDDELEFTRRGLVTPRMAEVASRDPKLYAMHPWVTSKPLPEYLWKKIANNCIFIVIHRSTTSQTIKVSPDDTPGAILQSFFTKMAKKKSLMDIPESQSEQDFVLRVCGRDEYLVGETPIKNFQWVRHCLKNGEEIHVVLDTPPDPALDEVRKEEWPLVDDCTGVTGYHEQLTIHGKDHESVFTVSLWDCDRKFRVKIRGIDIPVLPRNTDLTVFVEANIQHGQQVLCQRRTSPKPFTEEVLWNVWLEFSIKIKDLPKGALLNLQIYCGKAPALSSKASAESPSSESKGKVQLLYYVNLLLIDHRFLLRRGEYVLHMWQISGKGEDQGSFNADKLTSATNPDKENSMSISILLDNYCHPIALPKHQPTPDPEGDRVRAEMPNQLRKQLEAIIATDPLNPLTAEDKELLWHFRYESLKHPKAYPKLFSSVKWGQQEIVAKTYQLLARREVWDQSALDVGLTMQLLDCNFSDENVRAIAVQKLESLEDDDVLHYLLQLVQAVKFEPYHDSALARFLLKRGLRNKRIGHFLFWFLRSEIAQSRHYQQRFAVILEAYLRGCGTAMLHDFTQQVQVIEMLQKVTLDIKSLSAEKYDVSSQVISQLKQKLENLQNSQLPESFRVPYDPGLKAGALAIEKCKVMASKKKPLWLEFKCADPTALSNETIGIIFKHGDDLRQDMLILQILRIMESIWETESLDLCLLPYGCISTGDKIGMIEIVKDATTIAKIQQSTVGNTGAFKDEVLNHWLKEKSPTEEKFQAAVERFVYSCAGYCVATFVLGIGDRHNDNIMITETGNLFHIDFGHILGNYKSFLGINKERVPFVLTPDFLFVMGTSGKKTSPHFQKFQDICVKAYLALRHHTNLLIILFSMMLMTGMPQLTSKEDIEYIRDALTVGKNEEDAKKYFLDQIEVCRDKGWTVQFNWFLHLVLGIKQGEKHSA

PI3K δ = PI3K δ (Homo sapiens, UniProt O00329); assay: PI 3-Kinase (human) HTRF assay, PI3K δ
PI3K δ, sequence (O00329 whole entry): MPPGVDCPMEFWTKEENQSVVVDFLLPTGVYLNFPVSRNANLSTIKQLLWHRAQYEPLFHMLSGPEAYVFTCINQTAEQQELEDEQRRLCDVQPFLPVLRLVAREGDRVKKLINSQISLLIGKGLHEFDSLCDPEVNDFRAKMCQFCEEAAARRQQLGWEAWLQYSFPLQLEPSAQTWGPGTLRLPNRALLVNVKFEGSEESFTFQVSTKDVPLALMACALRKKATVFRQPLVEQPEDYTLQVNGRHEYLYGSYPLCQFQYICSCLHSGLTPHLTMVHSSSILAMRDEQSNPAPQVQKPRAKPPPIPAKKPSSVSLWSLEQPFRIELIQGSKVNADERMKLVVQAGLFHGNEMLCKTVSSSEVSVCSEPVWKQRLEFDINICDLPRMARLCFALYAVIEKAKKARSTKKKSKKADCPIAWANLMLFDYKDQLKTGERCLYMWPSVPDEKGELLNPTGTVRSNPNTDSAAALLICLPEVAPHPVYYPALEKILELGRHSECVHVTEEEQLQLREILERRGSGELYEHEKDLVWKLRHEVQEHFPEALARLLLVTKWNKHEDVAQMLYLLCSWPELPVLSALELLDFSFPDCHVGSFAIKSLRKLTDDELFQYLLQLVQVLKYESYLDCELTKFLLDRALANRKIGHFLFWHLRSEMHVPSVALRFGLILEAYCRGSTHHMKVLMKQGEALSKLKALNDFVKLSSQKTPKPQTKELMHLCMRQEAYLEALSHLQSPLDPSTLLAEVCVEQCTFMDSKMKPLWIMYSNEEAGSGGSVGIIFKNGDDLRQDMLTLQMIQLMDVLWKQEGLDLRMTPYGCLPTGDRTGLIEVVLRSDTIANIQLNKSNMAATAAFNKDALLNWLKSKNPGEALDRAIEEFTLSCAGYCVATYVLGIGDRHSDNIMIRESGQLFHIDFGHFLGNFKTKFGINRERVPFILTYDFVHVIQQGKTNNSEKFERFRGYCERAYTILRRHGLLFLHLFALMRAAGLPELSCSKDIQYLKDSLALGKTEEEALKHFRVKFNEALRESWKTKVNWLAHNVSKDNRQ
PI3K δ, sequence (P27986 whole entry partner): as the sequence (P27986 whole entry partner) above

human tumor cell lines = assay: Tumor cell line proliferation assay; format: cell-based; conditions: chart (FIG. 13)
Protocol: The ability of one or more subject compounds to inhibit tumor cell line proliferation is determined according to standard procedures known in the art. For instance, an in vitro cellular proliferation assay can be performed to measure the metabolic activity of live cells. The assay is performed in a 96 well microtiter plate using Alamar Blue reduction. Human tumor cell lines are obtained from ATCC (e.g., MCF7, U-87 MG, MDA-MB-468, PC-3), grown to confluency in T75 flasks, trypsinized with 0.25% trypsin, washed one time with Tumor Cell Media (DMEM+10% FBS), and plated in 90 ul at 5,000 cells/well in Tumor Cell Media. A compound disclosed herein is diluted in Tumor Cell Media and added in a 10 ul volume. Plates are incubated for 72 hours at 37 C and 5% CO2. A volume of 10 uL of Alamar Blue reagent is added to each well and plates are incubated for 3 hours at 37 C and 5% CO2. Alamar Blue fluoresce is read at 560Ex/590Em, and IC50 values are calculated using GraphPad Prism 5.

breast cancer model = assay: Preclinical breast cancer model (tumor weight / volume); format: in vivo; conditions: for tumor weight of a breast cancer model: 70 mg/kg Pan-PI3K inhibitor, 60 mg/kg compound A (FIG. 9 left); for tumor weight in a preclinical breast cancer model: combined treatment with Compound A and Compound B (FIG. 2)
[1] = tested on: Akt, S6, 4EBP phosphorylation; assay: Western blot of PI3K pathway phosphorylation (Akt, S6, 4EBP); format: cell-based; conditions: for inhibition of Akt, S6, and 4EBP phosphorylation: PTEN mutant cells, western blot (FIG. 6B); for downregulating Akt and S6 phosphorylation: combined treatment with Compound A and Compound B, western blot (FIG. 3)
B cell function = B cell function in vivo (TNP-Ficoll immunization, antibody production); set-up: species or system mouse; conditions: mice immunized with TNP-Ficoll; 70 mg/kg GDC0941; 30, 60 or 120 mg/kg Compound A for 7 days (FIG. 8)
Protocol: Antibody production was measured as a percentage of control group that were treated with vehicle.

[2] = tested on: pAKT(S473) in MDA-MB-361 cells; assay: Western blot of Akt phosphorylation (pAKT) in MDA-MB-361 cells; format: cell-based, human; conditions: about 2 hours treatment, read-out: inhibition of pAKT, IC50
Protocol: (§1) Cells comprising one or more mutations in PI3Kα, including but not limited to breast cancer cells (e.g., MDA-MB-361, T47D, SKOV-3), and cells comprising one or more mutations in PTEN including but not limited to prostate cancer cells (e.g., PC3), are typically grown in cell growth media such as DMEM supplemented with fetal bovine serum and/or antibiotics, and grown to confluency. Cells are then treated with various concentrations of test compound for about 2 hours and subsequently lysed in cell lysis buffer. Lysates are subjected to SDS-PAGE followed by Western blot analysis to detect downstream signaling markers, including but not limited to pAKT(S473), pAKT(T308), pS6, and p4E-BP1.
MDA-MB-361(PIK3CA-E545K), MDA-MB-453 (PIK3CA-H1047R), and SK-Br3 (Her2) cells were treated with various concentrations of Compound A for 2 h and subsequently lysed. Lysates were subjected to SDS-PAGE followed by Western blot analysis as described above to detect downstream pathway markers.

[3] = tested on: pAKT(S473), pAKT(T308) in PC3 cells; assay: Western blot of Akt phosphorylation (pAKT) in PC3 cells; format: cell-based
Protocol: as §1

MDA-MB-361 cells = assay: Cell proliferation (CellTiter-Glo) in MDA-MB-361 cells; format: cell-based, human; conditions: read-out: inhibition of cell proliferation, IC50
Protocol: as §1
Cells were seeded at 5000-10,000 per well in a 96 well flat bottom plate 90 ul growth media. Pre-diluted compound (at 10 times the final concentration) or DMSO (control) was added. The compounds were prepared such that the dose range extended from a final concentration of 30 μM to 14 nM via 3-fold serial dilutions (8 point curve). The final DMSO concentration was 0.3%. […] After 72 hours, proliferation was measured using CellTiter-Glo Luminescent reagent (Promega, PR-G7573). […] Contents were mixed for 30 minutes on an orbital shaker to lyse cells Luminescence was read on a PerkinElmer EnVision plate reader. […] Inhibition % was calculated as: 1−(cells+inhibitor)−background signal)/(cells+DMSO)−background signal)[…].

[4] = tested on: MDA-MB-361 (PI3Kα/HER2 carcinoma) tumors; assay: In vivo efficacy in MDA-MB-361 xenograft mouse model of breast cancer; set-up: species or system nude mice; conditions: 70 mg/kg Pan-PI3K inhibitor, 60 mg/kg compound A, FIG. 9 left panel
Protocol: Blood glucose was monitored periodically following administration of treatment.
Treatment of tumors (MDA-MB-361) with compounds was discontinued on Day 30. Tumors were measured every 2-5 days.

[5] = tested on: 786-O human kidney carcinoma tumors; assay: In vivo efficacy in 786-O xenograft model; set-up: species or system nude mice; conditions: oral, FIG. 6
NRDG1 phosphorylation = assay: Western blot of NRDG1 phosphorylation; format: cell-based; conditions: western blot (FIG. 5B)
[6] = tested on: mTORC1 and mTORC2 in 786-O cells; assay: Western blot of pNDRG1 in 786-O cells (mTOR pathways); format: cell-based, human; conditions: FIG. 5
Excerpt: Cells were subsequently lysed and lysates were subjected to SDS-PAGE followed by Western blot analysis to detect the downstream pathway marker, pNDRG1.

MZB cells = MZB cells in mouse spleen; format: in vivo; conditions: 70 mg/kg Pan-PI3K inhibitor compared to 60 mg/kg Compound A (FIG. 9 right)
[7] = tested on: anti-TNP antibody production; assay: TNP-Ficoll T-cell independent B-cell activation assay; format: in vivo; conditions: mice, 7 days; 70 mg/kg GDC0941; 30, 60, 120 mg/kg Compound A; ELISA; FIG. 8
Protocol: To test the effects of the compounds of the present invention in suppressing T cell independent antibody production, the TNP-Ficoll B-cell activation assay is used as described herein. Compounds of the present invention are dissolved in an appropriate vehicle (e.g. 5% 1-methyl-2-pyrrolidinone, 85% polyethylene glycol 400, 10% Solutor). Compounds are administered orally approximately 1 hr before TNP-Ficoll treatment to 4-10 week old mice. To study the effects of the compounds on B-cell activation, one set of mice are grouped according to the following table:
Four animals in group 1, and eight animals in groups 2 to 7 are euthanized in CO2 2 hours after the last compound administration on day 7. […]
Serum samples are analyzed for anti-TNP antibody titers by ELISA as described herein. […] HRP substrate (200 μl ABTS solution+30% H2O2+10 ml citrate buffer) is added to each well at 100 μl/well, incubated 2-20 minutes in the dark and the amount of anti-TNP IgG3 is determined spectrophotometrically at 405 nm. Similarly, anti-TNP IgM and total anti-TNP Ab are determined using anti-mouse IgM-HRP and anti-mouse Ig-HRP respectively.
Antibody production was measured using ELISA and plotted as as a percentage of control group that were treated with vehicle.

marginal zone B cells = assay: Marginal zone B cells in mouse spleen (FACS); conditions: 70 mg/kg Pan-PI3K inhibitor, 60 mg/kg Compound A; spleens harvested 2 hrs after last dose; FIG. 9
Protocol: The effect of the compounds on the localization/viability of marginal zone B cells in the spleen is also evaluated at the conclusion of treatment.
Spleens were harvested 2 hrs after the last dose, processed and stained with appropriate antibodies (marginal zone B cell: B220+; CD23−; CD21hi) and analyzed for staining on GUAVA EasyCyte FACS machine using Guava Cytosoft 5.2 software.

## C=Cc1oc(NC(C)=O)nc1/C=C/c1nn(C)c2ncnc(N)c12 [Compound 2]
mTOR
  IC50: < 100 nM
PC3; Table 1
  EC50: < 1000 nM
PI3K α
  IC50: < 10 µM
PI3K β
  IC50: > 10 µM
PI3K γ
  IC50: < 1 µM
PI3K δ
  IC50: < 1000 nM

## C[C@H]1CN(C2CN(C(=O)c3cnc4ccc(-c5ccc6oc(N)nc6c5)cn34)C2)CCN1C [Compound 512]
PC3; PC3 cells
  IC50: < 1000 nM
PI3K γ; read-out: PI3K γ IC50, in vitro
  IC50: < 10 µM

## Nc1nc2cc(-c3ccc4ncc(C(=O)N5CCOCC5)n4c3)ccc2o1 [Compound A]
Human tumor cell lines
  proliferation of tumor cells harboring PI3K α mutations: preferentially inhibits
Breast cancer model
  tumor weight of a breast cancer model: reduction in tumor weight
  tumor weight in a preclinical breast cancer model: synergistic effect
Breast cancer model; combined treatment with Compound A and rapamycin (FIG. 4)
  reducing tumor volume of a preclinical breast cancer model: synergistic effect
[1]; MDA-MB-361, MDA-MB-453, SKBr3 breast cancer cells, western blot (FIG. 11)
  inhibition of the PI3K pathway in cell lines with elevated PI3K α activity: inhibition
[1]
  inhibition of Akt, S6, and 4EBP phosphorylation: not
  downregulating Akt and S6 phosphorylation: synergistic effect
[1]; PTEN-mutant cell line (FIG. 12B)
  Akt phosphorylation at serine 473: reduced inhibition
[1]; western blot (FIG. 12A)
  Akt phosphorylation at serine 473: inhibition
B cell function
  B cell function in vivo (antibody production): not
[2]
  IC50: ~1000 nM
[3]; PC3 cells, about 2 hours treatment, read-out: inhibition of pAKT, IC50
  IC50: ~10 µM
MDA-MB-361 cells
  IC50: ~1900 nM
[4]
  tumor weight: reduction in tumor weight
[5]
  inhibition of kinase activity (downstream markers) and tumor growth: decreased activity by comparison to that seen in the MDA derived tumors
PI3K α; chart (FIG. 6C)
  specificity in inhibiting PI3K α over mTOR and other PI3K isoforms: specificity

## CC(C)n1nc(-c2ccc3oc(N)nc3c2)c2c(N)ncnc21 [Compound B]
Breast cancer model
  tumor weight in a preclinical breast cancer model: synergistic effect
[1]
  inhibition of Akt, S6, and 4EBP phosphorylation: selective inhibition
  downregulating Akt and S6 phosphorylation: synergistic effect
[1]; western blot (FIG. 7)
  inhibition of Akt phosphorylation at serine 473 over threonine 308: differential inhibition
NRDG1 phosphorylation
  mTORC1-dependent NRDG1 phosphorylation: sensitivity
[3]; PC3 model, FIG. 7
  inhibition of Akt phosphorylation, serine 473 versus threonine 308: differential inhibition of Akt phosphorylation at serine 473 over threonine 308
[5]
  inhibition of kinase activity (downstream markers) and tumor growth: effective at inhibiting kinase activity
[6]
  effects on mTORC1 and mTORC2 (pNDRG1): differential effects on mTORC1 and mTORC2

## CS(=O)(=O)N1CCN(Cc2cc3nc(-c4cccc5[nH]ncc45)nc(N4CCOCC4)c3s2)CC1 [Pan-PI3K inhibitor, GDC0941, reference compound]
Breast cancer model
  tumor weight of a breast cancer model: reduction in tumor weight
B cell function
  B cell function in vivo (antibody production): blocks
MZB cells
  presence of MZB cells in mouse spleen: reduced presence
[4]
  tumor weight: reduction in tumor weight
[7]
  B cell function in vivo (antibody production after TNP-Ficoll): blocks B cell function in vivo
Marginal zone B cells
  presence (localization/viability) of marginal zone B cells in spleen: reduced presence of MZB cells

Reference: patent US9295673B2, “Combination of mTOR inhibitors and P13-kinase inhibitors, and uses thereof” (Intellikine LLC, priority 2011, dated 2016)
